Columns and labels:
[1] = Tmax in rat at 40 mg/kg, po administered QD measured after 1 day; format: ADME, organism-based; design: dose 40 mg/kg, route oral; conditions: in vivo
HepG2 [2] = assay: Mitochondrial toxicity against human HepG2 cells assessed as decrease in ribosomal DNA up to 100 uM after 14 days by RT-PCR analysis; format: cell-based; conditions: hepg2, 336 h
CCRF-CEM [3] = assay: Mitochondrial toxicity against human CEM cells assessed as decrease in ribosomal DNA up to 100 uM after 14 days by RT-PCR analysis; format: cell-based; conditions: 336 h
HepG2 [4] = assay: Cytotoxicity against human HepG2 cells up to 100 uM after 8 days by MTT assay; format: cell-based; conditions: hepg2, 192 h
Rattus norvegicus [5] = assay: Prodrug conversion in rat liver assessed as beta-D-2'-deoxy-2'-alpha-fluoro-2'-beta-C-methylguanosine triphosphate level at 40 mg/kg, po administered QD as repeated dose measured at 4 hrs post-dosing on day 8; format: ADME, organism-based; design: dose 40 mg/kg, route oral; conditions: in vivo
[6] = AUClast in rat at 40 mg/kg, po administered QD measured after 1 day; format: ADME, organism-based; design: dose 40 mg/kg, route oral; conditions: plasma
[7] = Half life in rat plasma; format: ADME, cell-free
[8] = Half life in human plasma; format: ADME, cell-free
CCRF-CEM [9] = assay: Cytotoxicity against human CEM cells up to 100 uM after 8 days by MTT assay; format: cell-based; conditions: 192 h
[10] = Half life in simulated intestinal fluid; format: physicochemical
[11] = Half life in simulated gastric fluid; format: physicochemical
Hepatitis C virus [12] = assay: Antiviral activity against Hepatitis C virus genotype 1b replicon infected in clone A cells assessed as inhibition of viral replication by RT-PCR analysis; format: functional, Hepacivirus hominis
[13] = Half life in rat at 40 mg/kg, po administered QD measured after 7 days; format: ADME, organism-based; design: dose 40 mg/kg, route oral; conditions: in vivo
[14] = AUClast in rat at 40 mg/kg, po administered QD measured after 7 days; format: ADME, organism-based; design: dose 40 mg/kg, route oral; conditions: plasma
[15] = AUC (infinity) in rat at 40 mg/kg, po administered QD measured after 1 day; format: ADME, organism-based; design: time infinity, dose 40 mg/kg, route oral; conditions: plasma
Hepatitis C virus [16] = assay: Ratio of PSI-352938 EC90 to compound EC90 for Hepatitis C virus genotype 1b infected in clone A cells; format: functional, Hepacivirus hominis
[17] = Tmax in rat at 40 mg/kg, po administered QD measured after 7 days; format: ADME, organism-based; design: dose 40 mg/kg, route oral; conditions: in vivo
Rattus norvegicus [18] = assay: Prodrug activation in rat liver assessed as beta-D-2'-deoxy-2'-alpha-fluoro-2'-beta-C-methylguanosine monophosphate level at 40 mg/kg, po administered QD as repeated dose measured at 4 hrs post-dosing on day 8; format: organism-based; design: dose 40 mg/kg, route oral; conditions: in vivo
Rattus norvegicus [19] = assay: Prodrug activation in rat liver assessed as beta-D-2'-deoxy-2'-alpha-fluoro-2'-beta-C-methylguanosine diphosphate level at 40 mg/kg, po administered QD as repeated dose measured at 4 hrs post-dosing on day 8; format: organism-based; design: dose 40 mg/kg, route oral; conditions: in vivo
BXPC-3 = assay: Cytotoxicity against human BxPC3 cells up to 100 uM after 8 days by MTT assay; format: cell-based; conditions: bxpc-3, 192 h
HepG2 [20] = assay: Mitochondrial toxicity against human HepG2 cells assessed as decrease in mitochondrial COX2 DNA up to 100 uM after 14 days by RT-PCR analysis; format: cell-based; conditions: hepg2, 336 h
[21] = Half life in rat at 40 mg/kg, po administered QD measured after 1 day; format: ADME, organism-based; design: dose 40 mg/kg, route oral; conditions: in vivo
Rattus norvegicus [22] = assay: Prodrug activation in rat liver assessed as total nucleotide level at 40 mg/kg, po administered QD as repeated dose measured at 4 hrs post-dosing on day 8; format: organism-based; design: dose 40 mg/kg, route oral; conditions: in vivo
Rattus norvegicus [23] = assay: Tlast in rat at 40 mg/kg, po administered QD measured after 7 days; format: ADME, organism-based; design: dose 40 mg/kg, route oral; conditions: in vivo, 168 h
Hepatocyte = assay: Prodrug activation in human primary hepatocytes assessed as assessed as Tmax of beta-D-2'-deoxy-2'-alpha-fluoro-2'-beta-C-methylguanosine triphosphate level at 100 uM; format: cell-based, Liver
Rattus norvegicus [24] = assay: Tlast in rat at 40 mg/kg, po administered QD measured after 1 day; format: ADME, organism-based; design: dose 40 mg/kg, route oral; conditions: in vivo, 24 h
[25] = Cytotoxicity against human HuH7 cells; format: cell-based; conditions: Huh-7 cells
Huh-7 [26] = assay: Prodrug activation in human HuH7 cells infected with HCV genotype 1b assessed as Tmax of beta-D-2'-deoxy-2'-alpha-fluoro-2'-beta-C-methylguanosine triphosphate level at 100 uM; format: cell-based; conditions: huh-7, 100 µM
CCRF-CEM [27] = assay: Mitochondrial toxicity against human CEM cells assessed as decrease in mitochondrial COX2 DNA up to 100 uM after 14 days by RT-PCR analysis; format: cell-based; conditions: 336 h
[28] = Cmax in rat at 40 mg/kg, po administered QD measured after 1 day; format: ADME, organism-based; design: dose 40 mg/kg, route oral; conditions: in vivo
[29] = Half life in human liver S9 fraction; format: ADME, subcellular
Hepatitis C virus [30] = assay: Antiviral activity against Hepatitis C virus expressing NS5B S282T mutant by cell-based replicon assay; format: functional, Hepacivirus hominis
[31] = AUC (infinity) in rat at 40 mg/kg, po administered QD measured after 7 days; format: ADME, organism-based; design: time infinity, dose 40 mg/kg, route oral; conditions: plasma
Huh-7 [32] = assay: Cytotoxicity against human HuH7 cells up to 100 uM after 8 days by MTT assay; format: cell-based; conditions: huh-7, 192 h
[33] = Cmax in rat at 40 mg/kg, po administered QD measured after 7 days; format: ADME, organism-based; design: dose 40 mg/kg, route oral; conditions: in vivo
Hepatitis C virus [34] = assay: Antiviral activity against Hepatitis C virus genotype 1b replicon infected in Lunet cells by luciferase reporter gene assay; format: functional, Hepacivirus hominis
Rattus norvegicus [35] = assay: Prodrug activation in rat liver assessed as free nucleoside level at 40 mg/kg, po administered QD as repeated dose measured at 4 hrs post-dosing on day 8; format: organism-based; design: dose 40 mg/kg, route oral; conditions: in vivo
Hepatitis C virus [36] = assay: Antiviral activity against Hepatitis C virus infected in po dosed human assessed as log reduction in viral load; format: functional, Hepacivirus hominis

## COc1nc(N)nc2c1ncn2[C@@H]1O[C@@H]2COP(=O)(OC3CCCC3)O[C@H]2[C@@]1(C)F (stereo not given in full)
[1]
  Tmax: 1.67 h
HepG2 [2]
  Activity: Non-toxic
CCRF-CEM [3]
  Activity: Non-toxic
HepG2 [4]
  Activity: Non-toxic
Rattus norvegicus [5]
  Drug metabolism: 3.78 nmol/g
[6]
  AUC(0-t) at 24 h: 660 ng·h/mL
[7]
  half-life: 22 h
[8]
  half-life: > 24 h
CCRF-CEM [9]
  Activity: Non-toxic
[10]
  half-life: 14 h
[11]
  half-life: 9.2 h
Hepatitis C virus [12]
  EC90: 102 nM
[13]
  half-life: 0.93 h
[14]
  AUC(0-t) at 168 h: 510 ng·h/mL
[15]
  AUC(0-inf): 690 ng·h/mL
Hepatitis C virus [16]
  Ratio: >=10
[17]
  Tmax: 1.67 h
Rattus norvegicus [18]
  Drug metabolism: 26.6 nmol/g
Rattus norvegicus [19]
  Drug metabolism: 31 nmol/g
BXPC-3
  Activity: Non-toxic
HepG2 [20]
  Activity: Non-toxic
[21]
  half-life: 1.8 h
Rattus norvegicus [22]
  Drug metabolism: 61.37 nmol/g
Rattus norvegicus [23]
  Tlast: 7.33 h
Hepatocyte
  Tmax: 8 h
Rattus norvegicus [24]
  Tlast: 7.33 h
[25]
  CC90: > 100000 nM
Huh-7 [26]
  Tmax: 72 h
CCRF-CEM [27]
  Activity: Non-toxic
[28]
  Cmax: 160 ng/mL
[29]
  half-life: 20 h
Hepatitis C virus [30]
  EC90: 27 nM
[31]
  AUC(0-inf): 510 ng·h/mL
Huh-7 [32]
  Activity: Non-toxic
[33]
  Cmax: 120 ng/mL
Hepatitis C virus [34]
  EC90: 37 nM
Rattus norvegicus [35]
  Drug metabolism: 21.28 nmol/g

## COc1nc(N)nc2c1ncn2[C@@H]1O[C@@H]2COP(=O)(O)O[C@H]2[C@@]1(C)F
[25]
  CC90: > 100000 nM
Hepatitis C virus [34]
  EC90: 180 nM

## COc1nc(N)nc2c1ncn2[C@@H]1O[C@@H]2COP(=O)(OC3CCC3)O[C@H]2[C@@]1(C)F (stereo not given in full)
[1]
  Tmax: 1.67 h
HepG2 [2]
  Activity: Non-toxic
CCRF-CEM [3]
  Activity: Non-toxic
HepG2 [4]
  Activity: Non-toxic
Rattus norvegicus [5]
  Drug metabolism: 3.69 nmol/g
[6]
  AUC(0-t) at 24 h: 9480 ng·h/mL
[7]
  half-life: 15.8 h
[8]
  half-life: 18.3 h
CCRF-CEM [9]
  Activity: Non-toxic
[10]
  half-life: < 6 h
[11]
  half-life: < 4 h
Hepatitis C virus [12]
  EC90: 135 nM
[13]
  half-life: 1.43 h
[14]
  AUC(0-t) at 168 h: 13900 ng·h/mL
[15]
  AUC(0-inf): 9500 ng·h/mL
Hepatitis C virus [16]
  Ratio: >=10
[17]
  Tmax: 4 h
Rattus norvegicus [18]
  Drug metabolism: 29.9 nmol/g
Rattus norvegicus [19]
  Drug metabolism: 32.36 nmol/g
BXPC-3
  Activity: Non-toxic
HepG2 [20]
  Activity: Non-toxic
[21]
  half-life: 1.32 h
Rattus norvegicus [22]
  Drug metabolism: 65.93 nmol/g
Rattus norvegicus [23]
  Tlast: 20 h
Hepatocyte
  Tmax: > 48 h
Rattus norvegicus [24]
  Tlast: 20 h
[25]
  CC90: > 100000 nM
Huh-7 [26]
  Tmax: 48 h
CCRF-CEM [27]
  Activity: Non-toxic
[28]
  Cmax: 2080 ng/mL
[29]
  half-life: 2.6 h
Hepatitis C virus [30]
  EC90: 67 nM
[31]
  AUC(0-inf): 13900 ng·h/mL
Huh-7 [32]
  Activity: Non-toxic
[33]
  Cmax: 5170 ng/mL
Hepatitis C virus [34]
  EC90: 46 nM
Rattus norvegicus [35]
  Drug metabolism: 15.5 nmol/g

## CCOP1(=O)OC[C@H]2O[C@@H](n3cnc4c(OC(C)C)nc(N)nc43)[C@](C)(F)[C@@H]2O1 (stereo not given in full)
Hepatitis C virus [34]
  EC90: 2250 nM

## COc1nc(N)nc2c1ncn2[C@@H]1O[C@@H]2COP(=O)(OC(C)C)O[C@H]2[C@@]1(C)F (stereo not given in full)
[7]
  half-life: 5.6 h
[8]
  half-life: > 24 h
[10]
  half-life: > 20 h
[11]
  half-life: > 20 h
Hepatitis C virus [12]
  EC90: 680 nM
[25]
  CC90: > 100000 nM
[29]
  half-life: > 24 h
Hepatitis C virus [34]
  EC90: 25.8 nM

## CCOP1(=O)OC[C@H]2O[C@@H](n3cnc4c(OC)nc(N)nc43)[C@](C)(F)[C@@H]2O1 (stereo not given in full)
[25]
  CC90: > 10000 nM
Hepatitis C virus [34]
  EC90: 35.8 nM

## COc1nc(N)nc2c1ncn2[C@@H]1O[C@@H]2COP(=O)(OC3CCCCC3)O[C@H]2[C@@]1(C)F (stereo not given in full)
[25]
  CC90: > 10000 nM
Hepatitis C virus [34]
  EC90: 39 nM

## CCOc1nc(N)nc2c1ncn2[C@@H]1O[C@@H]2COP(=O)(OC(C)C)O[C@H]2[C@@]1(C)F (stereo not given in full) [PSI-352938]
[7]
  half-life: > 24 h
[8]
  half-life: > 24 h
[10]
  half-life: > 20 h
[11]
  half-life: > 20 h
Hepatitis C virus [12]
  EC90: 1370 nM
Hepatitis C virus [36]
  Activity: >5 log10IU/ml
Hepatocyte
  Tmax: 24 h
[25]
  CC90: > 100000 nM
Huh-7 [26]
  Tmax: 96 h
[29]
  half-life: > 24 h
Hepatitis C virus [34]
  EC90: 740 nM
